≈ marks a conversion by molar mass, not a printed value.
How the values were obtained:
[1] = system: MDA-MB-231; test: Antiproliferative activity against human MDA-MB-231 cells assessed as inhibition of cell growth measured after 72 hrs by MTT assay; assay type: functional, cell-based; conditions: MDA-MB-231, 72 h
[2] = system: A549; test: Antiproliferative activity against human A549 cells assessed as inhibition of cell growth at 0.01 uM measured after 72 hrs by MTT assay relative to control; assay type: functional
[3] = Antiproliferative activity against human HFL1 cells assessed as inhibition of cell growth measured after 72 hrs by MTT assay; assay type: toxicity, cell-based
[4] = system: A549; test: Antiproliferative activity against human A549 cells assessed as inhibition of cell growth at 1 uM measured after 72 hrs by MTT assay relative to control; assay type: functional
[5] = system: K562; test: Antiproliferative activity against human K562 cells assessed as inhibition of cell growth measured after 72 hrs by MTT assay; assay type: functional, cell-based; conditions: K562, 72 h
[6] = system: HepG2; test: Antiproliferative activity against human HepG2 cells assessed as inhibition of cell growth measured after 72 hrs by MTT assay; assay type: functional, cell-based; conditions: HepG2, 72 h
[7] = system: A549; test: Antiproliferative activity against human A549 cells assessed as inhibition of cell growth at 0.1 uM measured after 72 hrs by MTT assay relative to control; assay type: functional
[8] = system: A549; test: Antiproliferative activity against human A549 cells assessed as inhibition of cell growth measured after 72 hrs by MTT assay; assay type: functional, cell-based; conditions: A549, 72 h
[9] = Metabolic stability in mouse liver microsomes assessed as half life at 100 uM measure upto 60 mins in presence of NADPH by LC-MS/MS analysis; assay type: ADME, Microsome
[10] = Aqueous solubility of the compound by HPLC analysis; assay type: physicochemical; conditions: aqueous (not further specified)
[11] = system: H22; test: Antitumor activity against mouse H22 cells allografted in mouse model assessed as tumor growth inhibition at 20 mg/kg,iv administered once daily for 3 weeks relative to control; assay type: functional; conditions: H22, 504 h, read-out: TGI
[12] = Metabolic stability in mouse plasma assessed as half life at 1 uM and measured upto 3 hrs by LC-MS/MS analysis; assay type: ADME, cell-free
[13] = Metabolic stability in mouse plasma assessed as compound remaining at 1 uM and measured at 3 hrs by LC-MS/MS analysis; assay type: ADME, cell-free; conditions: read-out: Stability
[14] = system: A549/TR; test: Antiproliferative activity against human A549/Taxol cells assessed as inhibition of cell growth measured after 72 hrs by MTT assay; assay type: functional, cell-based
[15] = Metabolic stability in mouse liver microsomes assessed as intrinsic clearance at 100 uM measure upto 60 mins in presence of NADPH by LC-MS/MS analysis; assay type: ADME, Microsome; conditions: 1 h
[16] = Resistance index, ratio of IC50 for antiproliferative activity against human A549/Taxol cells to IC50 for antiproliferative activity against human A549 cells; assay type: functional

Structure (SMILES)	IC50 [1] [µM]	inhibition at 0.01 µM [2] [%]	IC50 at 72 h [3] [µM]	inhibition at 1 µM [4] [%]	IC50 [5] [µM]	IC50 [6] [µM]	inhibition at 0.1 µM [7] [%]	IC50 [8] [µM]	other results
COc1ccc(N2CCC(=O)c3cc(OC)c(OC)cc32)cc1O	0.902	20.4	3.3	73.3	0.226	0.672	44.2	0.28	
COc1ccc(N2CCCc3c2cc(OC)c(OC)c3OC)cc1O	1.06	35	2.66	81	0.297	0.668	45	0.276	
COc1cc2c(c(OC)c1OC)C(=O)CCN2c1ccc(O)cc1		9.57		29.9			15.1		
COc1ccc(N2CCC(=O)c3cc4c(cc32)OCO4)cc1O		12.7		28			14.3		
COc1cc2c(cc1O)N(c1cc(OC)c(OC)c(OC)c1)CCC2=O		33.5		54.4			45.6		
COc1ccc(/C=C\c2cc(OC)c(OC)c(OC)c2)cc1O [COMBRETASTATIN A4]	0.02	76.9	0.091	78.4	0.004	0.033	76.2	0.011	half-life at 100 µM [9]: < 5 min; solubility [10]: 0.96 µg/mL (≈ 3.03 µM); inhibition in vivo at 20 mg/kg [11]: 59.2%; half-life at 1 µM [12]: > 3 h; remaining at 3 h, 1 µM [13]: 97.8%; IC50 [14]: 0.076 µM; CLH [15]: > 277 µL/min/mg
COc1cc(N2CCC(=O)c3c2cc(OC)c(OC)c3OC)cc(OC)c1OC		12.3		28.4			19.4		
C[C@]12CC[C@H]3[C@@H](CCC4=CC(=O)CC[C@@]43C)[C@@H]1CC[C@@H]2O [TESTOSTERONE]									CLH [15]: 436 µL/min/mg
COc1cc(N2CCC(=O)c3cc4c(cc32)OCO4)cc(OC)c1OC		19.9		46.6			29.2		
COc1cc2c(c(OC)c1OC)C(=O)CCN2c1c[nH]c2ccccc12		16.6		51.7			31.4		
COc1ccc(CN2CCC(=O)c3c2cc(OC)c(OC)c3OC)cc1O		13		17.7			13		
COc1cc2c(c(OC)c1OC)C(=O)CCN2Cc1ccc(F)cc1		12		32.1			16.3		
COc1cc2c(c(OC)c1OC)C(=O)CCN2c1ccc2c(c1)OCO2		22.6		65.3			44.8		
CC(=O)Oc1ccc(C(c2ccc(OC(C)=O)cc2)c2ccccn2)cc1 [BISACODYL]									remaining at 3 h, 1 µM [13]: 0.003%
COc1cc2c(c(OC)c1OC)C(=O)CCN2c1cccc2[nH]ccc12		11.6		35.9			31.2		
COc1ccc(N2CCC(=O)c3c2cc(OC)c(OC)c3OC)cc1	0.107	34	0.37	74.5	0.034	0.077	69.3	0.072	
COc1ccc(N2CCC(=O)c3c2cc(OC)c(OC)c3OC)cn1		18.8		45.3			30.4		

Structure (SMILES)	IC50 [1] [µM]	inhibition at 0.01 µM [2] [%]	IC50 at 72 h [3] [µM]	inhibition at 1 µM [4] [%]	IC50 [5] [µM]	IC50 [6] [µM]	inhibition at 0.1 µM [7] [%]	IC50 [8] [µM]	other results
COc1ccc2c(c1)C(=O)CCN2c1ccc(OC)c(O)c1		32.5		66.6			40.2		
COc1cc2c(c(OC)c1OC)C(=O)CCN2c1ccc2ccn(C)c2c1	1.14	13.2	2.76	61	0.147	0.648	53.4	0.17	
COc1cc2c(c(OC)c1OC)C(=O)CCN2c1ccc2cc[nH]c2c1	2.89	22.4	9.75	71.1	0.902	2.31	38.2	0.288	
COc1cc2c(c(OC)c1OC)C(=O)CCN2Cc1ccccc1		8.31		23.2			6.72		
COc1cc2c(c(OC)c1OC)C(=O)CCN2c1ccc2c(c1)OCCO2	0.237	35.6	0.303	72.4	0.081	0.163	44.9	0.216	
COc1ccc(N2CCC(=O)c3c2cc(OC)c(OC)c3OC)cc1O	0.096	43.9	0.284	68.4	0.03	0.032	68.3	0.034	
CC(=O)O[C@H]1C(=O)[C@@]2(C)[C@H]([C@H](OC(=O)c3ccccc3)[C@]3(O)C[C@H](OC(=O)[C@H](O)[C@@H](NC(=O)c4ccccc4)c4ccccc4)C(C)=C1C3(C)C)[C@]1(OC(C)=O)CO[C@@H]1C[C@@H]2O [PACLITAXEL]								0.022	Ratio IC50 [16]: 27.36; IC50 [14]: 0.602 µM
COc1cc2c(c(OC)c1OC)C(=O)CCN2c1ccc(O)c(O)c1		21.9		35			22.9		
COc1cc2c(c(OC)c1OC)C(=O)CCN2c1ccc(C)cc1		21		64.1			41.7		
COc1cc2c(c(OC)c1OC)C(=O)CCN2Cc1ccc(C(F)(F)F)cc1		6.29		28.6			22.1		
COc1cc2c(c(OC)c1OC)C(=O)CCN2c1ccc2c(ccn2C)c1	0.102	54.3	0.102	79.2	0.025	0.072	78.6	0.011	
COc1cc2c(c(OC)c1OC)C(=O)CCN2c1cccc(O)c1		15.8		50.1			36.8		
COc1cc2c(c(OC)c1OC)C(=O)CCN2c1cccc2c1ccn2C	0.033	19.2	0.099	74.2	0.007	0.021	56	0.063	
COc1cc2c(c(OC)c1OC)C(=O)CCN2c1ccccc1		6.13		31.1			12.3		
COc1ccc(N2CCC(=O)c3c2cc(OC)c(OC)c3OC)cc1OC		11		41			17.6		
COc1cc2c(c(OC)c1OC)C(=O)CCN2c1ccc2[nH]ccc2c1	0.912	30.1	2.98	72	0.182	0.855	69	0.305	
COc1ccc(N2CCC(=O)c3ccccc32)cc1O		38.2		58.5			54.7		

From ChEMBL document CHEMBL5634150, “Design, synthesis and biological evaluation of novel dihydroquinolin-4(1H)-one derivatives as novel tubulin polymerization inhibitors” (Eur J Med Chem, 2023)
